In one experiment the test system is COLO205. Briefly: COLO205 cell growth inhibitory activity (ATPlite). It counts as cell-based. To be noted: Homo sapiens, COLO 205, 72 h; COLO205 cells, growth inhibition, 3 days. On the procedure: (§1) Compounds are assessed in a variety of cell based assays. For example human cell lines with B-Raf V600E mutation (A375 melanoma, SKMEL3 melanoma, and COLO205 colon adenocarcinoma), as well as tumorigenic cell lines with wild-type B-RAF (SW620 colon adenocarcinoma) or with Ras mutations (SKMEL2 melanoma and IPC298 melanoma). Similar assays may be used to assess additional tumorigenic cell lines with Ras mutations, including, but not limited to, M202, M207, M243, M244, M296, S117, HCT116, HCT15, DLD1, MiaPaCa, A549, NCI-H23, NCI-H460, HOP62, MDA-MB231, Hs-578T, HL60, MOLT-4, and CCRF-CEM.
(§2) On day 1, cells are counted, then centrifuged in a conical tube for 5 minutes at 1000 rpm. The supernatant is removed and cells are re-suspended as follows: • SW620 (ATCC catalog #CCL-27): resuspend in Leibovitz's L-15 medium, 2 mM L-glutamine, 10% fetal bovine serum to 6×10^4 cells/mL. • A375 (ATCC catalog #CRL-1619): resuspend in Dulbecco's modified Eagle's medium, 4 mM L-glutamine, 4.5 g/L D-glucose, 10% fetal bovine serum to 6×10^4 cells/mL. • COLO205 (ATCC catalog #CCL-222): resuspend in RPMI 1640, 2 mM L-glutamine, 1.5 g/L sodium bicarbonate, 4.5 g/L D-glucose, 10 mM HEPES, 1.0 mM sodium pyruvate, 10% fetal bovine serum to 6×10^4 cells/mL. • SKMEL2 (ATCC catalog #HTB-68): resuspend in Minimum Eagle essential medium, 2 mM L-glutamine, 1.5 g/L sodium bicarbonate, 0.1 mM non-essential amino acids, 1.0 mM sodium pyruvate, 10% fetal bovine serum to 6×10^4 cells/mL. • SKMEL3 (ATCC catalog #HTB-69): resuspend in McCoy's 5A medium, 1.5 mM L-glutamine, 15% fetal bovine serum to 6×10^4 cells/mL. • IPC298 (DSMZ catalog #ACC 251): resuspend in RPMI 1640, 2 mM L-glutamine, 10% fetal bovine serum to 6×10^4 cells/mL.
(§3) The cells are plated, 50 μL in each well of a 96-well dish (Corning 3610) and incubated at 37° C. in 5% CO2 overnight, cells plated to a final concentration of cells as follows: • SW620: 5,000 cells per well. • A375: 2,000 cells per well. • COLO205: 2,000 cells per well. • SKMEL2: 2,000 cells per well. • SKMEL3: 3,000 cells per well. • IPC298: 2,000 cells per well.
(§4) On day 2, compound at a maximum concentration of 5 mM is serially diluted 1:3 (e.g. 10 μL with 30 μL dimethyl sulfoxide) for a total of 8 point titration with DMSO as a control. A 1 μL aliquot of each dilution point and control is added to 249 μL growth media and 50 μL is added to a well containing cells, providing 10 μM compound at the maximum concentration point. The cells are incubated for 3 days at 37° C. in 5% CO2.
(§5) On day 5, ATPlite 1 step Luminescence Assay System (Perkin Elmer #6016739) is brought to room temperature along with the cell cultures. ATPlite is added 25 μL to each well, shake for 2 minutes, and the cells are incubated at room temperature for 10 minutes, then luminescence is read on Satire reader. The measured luminescence correlates directly with cell number, such that the reading as a function of compound concentration is used to determine the IC50 value.
For orientation: ATP-based viability assays read luminescence as a measure of living cells.

The next experiment deals with A375. The experiment in a line: A375_P-ERK / A375 cell activity. To be noted: Homo sapiens, A-375; A375 cells (A375_P-ERK). The format is cell-based. On the procedure:
as §1, §2, §3, §4, §5

We go through 21 compounds from patent publication US9624213B2 (Plexxikon Inc., priority 2011, dated 2017).

Broadly, the IC50 is the concentration needed to halve the response being measured. Turning to `CCOC(=O)C1CCCN1S(=O)(=O)Nc1cccc(C(=O)c2c[nH]c3ncc(-c4cnc(OC)nc4)cc23)c1F` (centres unmarked) [Compound P-0257, ethyl 1-[[2-fluoro-3-[5-(2-methoxypyrimidin-5-yl)-1H-pyrrolo[2,3-b]pyridine-3-carbonyl]phenyl]sulfamoyl]pyrrolidine-2-carboxylate], the IC50 in the experiment with COLO205 is over 1 µM.
For `CC(C)(O)c1ccc(-c2cnc3[nH]cc(C(=O)c4cccc(NS(=O)(=O)N5CCCC5)c4F)c3c2)cc1` [Compound P-0105, N-[2-fluoro-3-[5-[4-(1-hydroxy-1-methyl-ethyl)phenyl]-1H-pyrrolo[2,3-b]pyridine-3-carbonyl]phenyl]pyrrolidine-1-sulfonamide], the IC50 in the experiment on COLO205 and with A375 was under 1 µM throughout.
In the case of `CCN(C)S(=O)(=O)Nc1cccc(C(=O)c2c[nH]c3ncc(-c4ccc(C5CC5)nc4)cc23)c1F` [Compound P-0087, 5-(6-cyclopropyl-3-pyridyl)-3-[3-[[ethyl(methyl)sulfamoyl]amino]-2-fluoro-benzoyl]-1H-pyrrolo[2,3-b]pyridine], the IC50 with COLO205 and with A375 was under 1 µM throughout.
Regarding `O=C(c1cccc(NS(=O)(=O)N2CCCC2)c1F)c1c[nH]c2ncc(-c3cnc(NC4CC4)nc3)cc12` [Compound P-0232, N-[3-[5-[2-(cyclopropylamino)pyrimidin-5-yl]-1H-pyrrolo[2,3-b]pyridine-3-carbonyl]-2-fluoro-phenyl]pyrrolidine-1-sulfonamide], the IC50 in the experiment on COLO205 and in the experiment on A375 was under 1 µM in each case.
For the compound `CCOc1cnc(-c2cnc3[nH]cc(C(=O)c4c(F)ccc(NS(=O)(=O)N(C)C)c4F)c3c2)cn1` [Compound P-0244, 3-[3-(dimethylsulfamoylamino)-2,6-difluoro-benzoyl]-5-(5-ethoxypyrazin-2-yl)-1H-pyrrolo[2,3-b]pyridine], the 50% inhibitory concentration (IC50) with COLO205 and with A375 was over 1 µM in each case.
As to `COc1ncc(-c2cnc3[nH]cc(C(=O)c4cccc(NS(=O)(=O)C5CC5)c4F)c3c2)cn1` [Compound P-0067, N-[2-fluoro-3-[5-(2-methoxypyrimidin-5-yl)-1H-pyrrolo[2,3-b]pyridine-3-carbonyl]phenyl]cyclopropanesulfonamide], the results for the IC50 in the experiment with COLO205 and with A375 were over 1 µM and under 1 µM, respectively.
For `CN1CCN(c2cc(-c3cnc4[nH]cc(C(=O)c5c(F)ccc(NS(=O)(=O)N6CCCC6)c5F)c4c3)ncn2)CC1` [Compound P-0319, N-[2,4-difluoro-3-[5-[6-(4-methylpiperazin-1-yl)pyrimidin-4-yl]-1H-pyrrolo[2,3-b]pyridine-3-carbonyl]phenyl]pyrrolidine-1-sulfonamide], the concentration for half-maximal inhibition (IC50) in the experiment on COLO205 and in the experiment with A375 was under 1 µM throughout.
For the compound `CCN(C)S(=O)(=O)Nc1cccc(C(=O)c2c[nH]c3ncc(-c4ccccc4)cc23)c1F` [Compound P-0036, 3-[3-[[ethyl(methyl)sulfamoyl]amino]-2-fluoro-benzoyl]-5-phenyl-1H-pyrrolo[2,3-b]pyridine], the IC50 is over 1 µM in the experiment with COLO205 and under 1 µM in the experiment on A375.
For `CCN(C)S(=O)(=O)Nc1cccc(C(=O)c2c[nH]c3ncc(-c4ccc(C5(C#N)CC5)cc4)cc23)c1F` [Compound P-0061, 5-[4-(1-cyanocyclopropyl)phenyl]-3-[3-[[ethyl(methyl)sulfamoyl]amino]-2-fluoro-benzoyl]-1H-pyrrolo[2,3-b]pyridine], the half-inhibitory concentration (IC50) in the experiment on COLO205 and with A375 was under 1 µM in each case.
For `CCN(C)S(=O)(=O)Nc1ccc(F)c(C(=O)c2c[nH]c3ncc(-c4cccc(N(C)C)c4)cc23)c1F` [Compound P-0302, 5-[3-(dimethylamino)phenyl]-3-[3-[[ethyl(methyl)sulfamoyl]amino]-2,6-difluoro-benzoyl]-1H-pyrrolo[2,3-b]pyridine], the half-inhibitory concentration (IC50) with COLO205 and in the experiment with A375 was under 1 µM each time.
As to `CN(C)S(=O)(=O)Nc1cccc(C(=O)c2c[nH]c3ncc(-c4cnc(C#N)nc4)cc23)c1F` [Compound P-0096, 5-(2-cyanopyrimidin-5-yl)-3-[3-(dimethylsulfamoylamino)-2-fluoro-benzoyl]-1H-pyrrolo[2,3-b]pyridine], the half-inhibitory concentration (IC50) with COLO205 and with A375 was under 1 µM in each case.
With `CN(C)S(=O)(=O)Nc1ccc(F)c(C(=O)c2c[nH]c3ncc(-c4ccc(C(C)(C)C#N)cc4)cc23)c1F` [Compound P-0255], the IC50 with COLO205 and in the experiment on A375 was under 1 µM in each case.
With `COC(=O)C1(c2ccc(-c3cnc4[nH]cc(C(=O)c5cccc(NS(=O)(=O)N6CCCC6)c5F)c4c3)cc2)CC1` [Compound P-0254, methyl 1-[4-[3-[2-fluoro-3-(pyrrolidin-1-ylsulfonylamino)benzoyl]-1H-pyrrolo[2,3-b]pyridin-5-yl]phenyl]cyclopropanecarboxylate], the IC50 with COLO205 and in the experiment with A375 was under 1 µM throughout.
`CN(C)c1ccc(-c2cnc3[nH]cc(C(=O)c4cccc(NS(=O)(=O)N5CCCC5)c4F)c3c2)cn1` [Compound P-0046, N-[3-[5-[6-(dimethylamino)-3-pyridyl]-1H-pyrrolo[2,3-b]pyridine-3-carbonyl]-2-fluoro-phenyl]pyrrolidine-1-sulfonamide]: the IC50 in the experiment with COLO205 and in the experiment with A375 was under 1 µM each time.
Compound `COc1ncc(-c2cnc3[nH]cc(C(=O)c4cccc(NS(=O)(=O)N5CCC(OCc6ccccc6)C5)c4F)c3c2)cn1` (centres unmarked) [Compound P-0041, 3-benzyloxy-N-[2-fluoro-3-[5-(2-methoxypyrimidin-5-yl)-1H-pyrrolo[2,3-b]pyridine-3-carbonyl]phenyl]pyrrolidine-1-sulfonamide] had an IC50 in the experiment on A375 of over 1 µM.
Consider `CCN(C)S(=O)(=O)Nc1ccc(F)c(C(=O)c2c[nH]c3ncc(-c4ccc(C(=O)NC5CC5)nc4)cc23)c1F` [Compound P-0312, N-cyclopropyl-5-[3-[3-[[ethyl(methyl)sulfamoyl]amino]-2,6-difluoro-benzoyl]-1H-pyrrolo[2,3-b]pyridin-5-yl]pyridine-2-carboxamide], for which the IC50 in the experiment on COLO205 and in the experiment with A375 was under 1 µM in each case.
`Cc1ccc(-c2cnc3[nH]cc(C(=O)c4cccc(NS(=O)(=O)N(C)C)c4F)c3c2)cn1` [Compound P-0029]: the IC50 in the experiment on COLO205 and with A375 was under 1 µM each time.
Turning to `CCN(C)S(=O)(=O)Nc1ccc(F)c(C(=O)c2c[nH]c3ncc(-c4cnc(N5CCN(C(=O)OC(C)(C)C)CC5)nc4)cc23)c1F` [Compound P-0264, tert-butyl 4-[5-[3-[3-[[ethyl(methyl)sulfamoyl]amino]-2,6-difluoro-benzoyl]-1H-pyrrolo[2,3-b]pyridin-5-yl]pyrimidin-2-yl]piperazine-1-carboxylate], the IC50 in the experiment with COLO205 and in the experiment with A375 was under 1 µM throughout.
`CC1(C)CCN(S(=O)(=O)Nc2cccc(C(=O)c3c[nH]c4ncc(-c5cnc(C6CC6)nc5)cc34)c2F)C1` [Compound P-0246, N-[3-[5-(2-cyclopropylpyrimidin-5-yl)-1H-pyrrolo[2,3-b]pyridine-3-carbonyl]-2-fluoro-phenyl]-3,3-dimethyl-pyrrolidine-1-sulfonamide] yielded an IC50 with A375 of over 1 µM.
`CN(C)S(=O)(=O)Nc1cccc(C(=O)c2c[nH]c3ncc(-c4ccc(C(C)(C)C#N)cc4)cc23)c1F` [Compound P-0245, 5-[4-(1-cyano-1-methyl-ethyl)phenyl]-3-[3-(dimethylsulfamoylamino)-2-fluoro-benzoyl]-1H-pyrrolo[2,3-b]pyridine]: the IC50 in the experiment with COLO205 and in the experiment with A375 was under 1 µM each time.
For `CCN(C)S(=O)(=O)Nc1cccc(C(=O)c2c[nH]c3ncc(-c4cncc(C#N)c4)cc23)c1F` [Compound P-0101, 5-(5-cyano-3-pyridyl)-3-[3-[[ethyl(methyl)sulfamoyl]amino]-2-fluoro-benzoyl]-1H-pyrrolo[2,3-b]pyridine], the concentration for half-maximal inhibition (IC50) with A375 was under 1 µM.
